Measurements from publication PMC11189555, “Aryl amino acetamides prevent Plasmodium falciparum ring development via targeting the lipid-transfer protein PfSTART1” (Nature Communications, 2024).
Where “and” joins values, the source holds several entries; their conditions need not be identical. Equal values may be shown once. Read-outs that look alike come from different tables or passages of the source.

System: 3D7 P. falciparum parasites
Experiment: Growth inhibition assay (72 h, LDH activity)
Type: cell-based, Plasmodium falciparum
Conditions: for (av-uRBC) / (DMSO-uRBC) x100 / Growth inhibition, (1 - av / DMSO) x 100: 3D7; for Growth inhibition, (1 - av / DMSO) x 100: Fig 2B source data, per biological replicate; for inhibition at 0.123457 µM: conc 123.457 nM
Method: Parasite growth assays with inhibitory compounds were performed as per[11] and are fully described in the Supplementary Information. […]
Growth inhibition assays. Synchronised ring-stage parasites (0.3-0.6% parasitemia, 2% haematocrit) were grown for 72 h in a serial-dilution of the compound under […]
and compound 4. Note that M-833 was first purchased from MolPort (MolPort -002-267-916) then made in-house at WEHI: the differences observed in EC50s across experiments are attributed to the different batches of M -833. For some experiments, 0, 0.25 or 2.5 mM of glucosamine (GlcN) was also added. Experiments were set up in technical duplicates or triplicates. Following a freeze -thaw cycle, lactate dehydrogenase (LDH) activity was assessed as an indicator of parasite growt h 5. 30 μL of parasite culture was incubated for 30 min in the dark with 75 μL Malstat mixture (0.1 M Tris pH 9.0, 20 g/L lactic acid, pH 7.5, 0.2% Triton-X100, 0.5 g/L acetylpyridine adenine dinucleotide (APAD, Sigma), 200 μg/mL nitroblue tetrazolium (NBT; Sigma), 1 μg/mL phenozine ethosulfate (PES; Sigma)). Absorbance was then measured at 650 nm, transformed using the formula below, plotted against the logarithm of the concentrations, and a non-linear regression (log(inhibitor) vs. response, variable slope) was calculated using GraphPad Prism to assess the half-inhibitory […]
Growth inhibition % = (1 − average(sample)− average(uRBC)) ∗ 100 […]
The DMSO samples were also used to assess growth of parasite in the presence of 0.25 and 2.5 mM GlcN (normalised by DMSO in 0 mM GlcN). […]

Cc1cc(Cl)c(S(=O)(=O)N2CCCC2)cc1OCC(=O)NC1CCCCC1 [M-833]
(av-uRBC) / (DMSO-uRBC) x100 (conc. 27.4348 nM, Biological replicate 1 (2021-10-25)): 97.1981 | (av-uRBC) / (DMSO-uRBC) x100 (conc. 27.4348 nM, Biological replicate 2 (2021-11-03)): 104.176 | (av-uRBC) / (DMSO-uRBC) x100 (conc. 82.3045 nM, Biological replicate 1 (2021-10-25)): 86.0541 | (av-uRBC) / (DMSO-uRBC) x100 (conc. 82.3045 nM, Biological replicate 2 (2021-11-03)): 97.3382 | (av-uRBC) / (DMSO-uRBC) x100 (conc. 246.914 nM, Biological replicate 1 (2021-10-25)): 38.189 | (av-uRBC) / (DMSO-uRBC) x100 (conc. 246.914 nM, Biological replicate 2 (2021-11-03)): 46.3664 | (av-uRBC) / (DMSO-uRBC) x100 (conc. 740.741 nM, Biological replicate 1 (2021-10-25)): 13.3602 | (av-uRBC) / (DMSO-uRBC) x100 (conc. 740.741 nM, Biological replicate 2 (2021-11-03)): 12.5985 | (av-uRBC) / (DMSO-uRBC) x100 (conc. 2222.22 nM, Biological replicate 1 (2021-10-25)): 9.5843 | (av-uRBC) / (DMSO-uRBC) x100 (conc. 2222.22 nM, Biological replicate 2 (2021-11-03)): 9.9758 | (av-uRBC) / (DMSO-uRBC) x100 (conc. 6666.67 nM, Biological replicate 1 (2021-10-25)): 8.737 | (av-uRBC) / (DMSO-uRBC) x100 (conc. 6666.67 nM, Biological replicate 2 (2021-11-03)): 9.539 | (av-uRBC) / (DMSO-uRBC) x100 (conc. 20000 nM, Biological replicate 1 (2021-10-25)): 8.871 | (av-uRBC) / (DMSO-uRBC) x100 (conc. 20000 nM, Biological replicate 2 (2021-11-03)): 7.978 | Normalised to DMSO (3D7 replicate 1, M-833 0.0390625 uM): 93.8526 | Normalised to DMSO (3D7 replicate 1, M-833 0.078125 uM): 78.1653 | Normalised to DMSO (3D7 replicate 1, M-833 0.15625 uM): 53.0058 | Normalised to DMSO (3D7 replicate 1, M-833 0.3125 uM): 31.7546 | Normalised to DMSO (3D7 replicate 1, M-833 0.625 uM): 15.6331 | Normalised to DMSO (3D7 replicate 1, M-833 1.25 uM): 6.894 | Normalised to DMSO (3D7 replicate 1, M-833 2.5 uM): 4.18 | Normalised to DMSO (3D7 replicate 1, M-833 5 uM): 4.492 | Normalised to DMSO (3D7 replicate 1, M-833 10 uM): 2.7005 | Normalised to DMSO (3D7 replicate 2, M-833 0.0390625 uM (plate column as in replicate 1)): 98.0943 | Normalised to DMSO (3D7 replicate 2, M-833 0.078125 uM (plate column as in replicate 1)): 69.2248 | Normalised to DMSO (3D7 replicate 2, M-833 0.15625 uM (plate column as in replicate 1)): 42.9307 | Normalised to DMSO (3D7 replicate 2, M-833 0.3125 uM (plate column as in replicate 1)): 17.4092 | Normalised to DMSO (3D7 replicate 2, M-833 0.625 uM (plate column as in replicate 1)): 12.6706 | Normalised to DMSO (3D7 replicate 2, M-833 1.25 uM (plate column as in replicate 1)): 9.0394 | Normalised to DMSO (3D7 replicate 2, M-833 2.5 uM (plate column as in replicate 1)): 8.2153 | Normalised to DMSO (3D7 replicate 2, M-833 5 uM (plate column as in replicate 1)): 8.679 | Normalised to DMSO (3D7 replicate 2, M-833 10 uM (plate column as in replicate 1)): 8.859 | Growth inhibition, (1 - av / DMSO) x 100 (M-833 conc 0.00152416 (unit not given)): -18.032% and -5.346% and 12.6336% | Growth inhibition, (1 - av / DMSO) x 100 (M-833 conc 0.00457247 (unit not given)): -25.7702% and -5.3748% and 10.1353% | Growth inhibition, (1 - av / DMSO) x 100 (M-833 conc 0.0137174 (unit not given)): -26.0091% and 2.611% and 15.3938% | Growth inhibition, (1 - av / DMSO) x 100 (M-833 conc 0.0411523 (unit not given)): 13.4703% and 15.2318% and 31.5623% | Growth inhibition, (1 - av / DMSO) x 100 (M-833 conc 0.123457 (unit not given)): 53.3795% and 44.2845% and 58.2697% | Growth inhibition, (1 - av / DMSO) x 100 (M-833 conc 0.37037 (unit not given)): 86.6253% and 82.9734% and 89.4611% | Growth inhibition, (1 - av / DMSO) x 100 (M-833 conc 1.11111 (unit not given)): 95.3188% and 95.9852% | Growth inhibition, (1 - av / DMSO) x 100 (M-833 conc 3.33333 (unit not given)): 96.9668% and 96.3144% and 96.0397% | Growth inhibition, (1 - av / DMSO) x 100 (M-833 conc 10 (unit not given)): 97.5639% and 97.303% and 96.0397% | Normalised to DMSO (M-833 0.0390625 uM, 3D7 replicate 3): 105.125 | Normalised to DMSO (M-833 0.078125 uM, 3D7 replicate 3): 101.149 | Normalised to DMSO (M-833 0.15625 uM, 3D7 replicate 3): 87.6289 | Normalised to DMSO (M-833 0.3125 uM, 3D7 replicate 3): 55.4639 | Normalised to DMSO (M-833 0.625 uM, 3D7 replicate 3): 35.4934 | Normalised to DMSO (M-833 1.25 uM, 3D7 replicate 3): 26.4801 | Normalised to DMSO (M-833 2.5 uM, 3D7 replicate 3): 22.6804 | Normalised to DMSO (M-833 5 uM, 3D7 replicate 3): 16.5832 | Normalised to DMSO (M-833 10 uM, 3D7 replicate 3): 21.9735 | inhibition at 0.0137174 µM (Plasmodium falciparum, 3D7, 3D7, 0 mM GlcN, conc 13.7174 nM, read-out: Growth inhibition assay, NORMALISED): 20.6% | inhibition at 0.0411523 µM (Plasmodium falciparum, 3D7, 3D7, 0 mM GlcN, conc 41.1523 nM, read-out: Growth inhibition assay, NORMALISED): 44.4% | inhibition at 0.123457 µM (Plasmodium falciparum, 3D7, 3D7, 0 mM GlcN, read-out: Growth inhibition assay, NORMALISED): 79.5% | inhibition at 0.37037 µM (Plasmodium falciparum, 3D7, 3D7, 0 mM GlcN, conc 370.37 nM, read-out: Growth inhibition assay, NORMALISED): 90.2% | inhibition at 1.11111 µM (Plasmodium falciparum, 3D7, 3D7, 0 mM GlcN, conc 1111.11 nM, read-out: Growth inhibition assay, NORMALISED): 91.3% | inhibition at 3.33333 µM (Plasmodium falciparum, 3D7, 3D7, 0 mM GlcN, conc 3333.33 nM, read-out: Growth inhibition assay, NORMALISED): 93.7% | inhibition at 10 µM (Plasmodium falciparum, 3D7, 3D7, 0 mM GlcN, conc 10000 nM, read-out: Growth inhibition assay, NORMALISED): 94.5% | inhibition at 0.123457 µM (Plasmodium falciparum, 3D7, 3D7, 0.25 mM GlcN, read-out: Growth inhibition assay, NORMALISED): 77.6%
